US10689366B2, “Compounds for MALT1 degredation” (Cornell University, priority 2016, dated 2020)
Read-outs that look alike come from different tables or passages of the source.

Experiments:
MALT1 [1] = biological target: T1, MALT1 (Homo sapiens, UniProt Q9UDY8); assay: Mechanistic validation of MALT1 degradation in wild type and CRBN knockout 293T cells (Western blot); assay type: cell-based; parameters: endogenous in cells; details: wild type vs CRBN knockout 293T cells, 10 μM, 24 hours; FIG. 2
T1 sequence (Q9UDY8 1-824): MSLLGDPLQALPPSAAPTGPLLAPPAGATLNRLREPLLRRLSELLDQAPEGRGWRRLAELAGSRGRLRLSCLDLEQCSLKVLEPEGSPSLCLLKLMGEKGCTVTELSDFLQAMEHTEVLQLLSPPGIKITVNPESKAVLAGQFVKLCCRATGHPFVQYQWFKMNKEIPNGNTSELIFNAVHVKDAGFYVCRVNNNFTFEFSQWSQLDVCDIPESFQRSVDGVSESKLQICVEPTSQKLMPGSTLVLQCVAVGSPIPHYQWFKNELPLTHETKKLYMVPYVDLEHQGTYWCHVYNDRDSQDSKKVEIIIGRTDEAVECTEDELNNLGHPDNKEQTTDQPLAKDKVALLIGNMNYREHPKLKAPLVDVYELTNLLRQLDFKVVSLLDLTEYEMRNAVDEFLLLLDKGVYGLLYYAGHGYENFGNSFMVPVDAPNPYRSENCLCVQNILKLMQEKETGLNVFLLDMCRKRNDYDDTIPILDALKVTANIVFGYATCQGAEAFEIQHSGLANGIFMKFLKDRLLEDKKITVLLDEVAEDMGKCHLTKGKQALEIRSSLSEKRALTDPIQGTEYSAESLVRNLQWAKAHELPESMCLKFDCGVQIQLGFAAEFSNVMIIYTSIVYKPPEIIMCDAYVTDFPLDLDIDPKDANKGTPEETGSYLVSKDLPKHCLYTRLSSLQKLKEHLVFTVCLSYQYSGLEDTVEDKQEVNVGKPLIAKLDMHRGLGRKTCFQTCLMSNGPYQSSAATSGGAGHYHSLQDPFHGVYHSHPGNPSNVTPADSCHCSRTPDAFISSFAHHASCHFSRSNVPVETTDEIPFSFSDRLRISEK
Protocol: Wild type and CRBN knockout 293T cells were treated with 10 μM of Example 1 or vehicle for 24 hours, and protein lysates were collected. The protein was analyzed by Western blot and immunoassayed for MALT1, CRBN, and Actin.
Wild type and CRBN knockout 293T cells were treated with 10 μM of Example 1 or vehicle for 24 hours, and protein lysates were collected. 80 μg of protein were analyzed by Western blot and immunoassayed for MALT1, CRBN and Actin.

MALT1 [2] = biological target: T1, MALT1; assay: MALT1 degradation assay (Western blot) in OCI-Ly3 cells; assay type: cell-based; parameters: endogenous in cells; host or cells: OCI-Ly3; details: 48 hours, normalized to Actin, relative to vehicle treated cells
Protocol: In the experiments, OCI-Ly3 cells were grown for 6 hours in the presence of the indicated concentrations of Examples 1-6, 9, and 10. Proteins were extracted, analyzed by Western blot, and membranes were immunoblotted for MALT1, CRBN, and Actin. Table 3 provides the results of experimental data obtained from the example compounds of the present disclosure. In particular, OCI-Ly3 cells were grown for 48 hours in the presence of the indicated concentrations of Examples 1-19. Proteins were extracted, analyzed by Western blot, and membranes were immunoblotted for MALT1, CRBN, and Actin. Western blot bands were quantified using Image Lab software. Results were normalized to Actin expression and presented as % MALT1 degradation relative to vehicle treated cells.

[3] = read-out: % MALT1 Degradation at 1 μM

Row | Compound | CRBN-dependent MALT1 degradation (MALT1 [1]) | % MALT1 degradation at 1 µM (MALT1 [2]; [3]) [%] | % MALT1 degradation at 1 µM (MALT1 [2])
1 | C[C@@H](c1c(NC(=O)Nc2cnc(-n3nccn3)c(Cl)c2)cnc2cc(Cl)nn12)N(C)C(=O)CCOCCOCCOCCOCCNc1cccc2c1C(=O)N(C1CCC(=O)NC1=O)C2=O (stereo partly drawn) [Example 1, N—((S)-1-(2-Chloro-6-(3-(5-chloro-6-(2H-1,2,3-triazol-2-yl)pyridin-3-yl)ureido)pyrazolo[1,5-a]pyrimidin-7-yl)ethyl)-1-((2-(2,6-dioxopiperidin-3-yl)-1,3-dioxoisoindolin-4-yl)amino)-N-methyl-3,6,9,12-tetraoxapentadecan-15-amide] | promoted CRBN-dependent MALT1 degradation | 31 to 50 | –
2 | CO[C@@H](C)c1c(NC(=O)Nc2cnc(-n3cc(CNC(=O)CCOCCOCCOCCOCCC(=O)N[C@H](C(=O)N4C[C@H](O)CC4C(=O)NCc4ccc(-c5scnc5C)cc4)C(C)(C)C)cn3)c(Cl)c2)cnc2cc(Cl)nn12 (stereo partly shown) [Example 10] | – | – | no degradation
3 | CO[C@@H](C)c1c(NC(=O)Nc2cnc(-n3cc(CNC(=O)CCOCCOCCNc4cccc5c4CN(C4CCC(=O)NC4=O)C5=O)cn3)c(Cl)c2)cnc2cc(Cl)nn12 (stereo partly drawn) [Example 5, N-((1-(3-Chloro-5-(3-(2-chloro-7-((S)-1-methoxyethyl)pyrazolo[1,5-a]pyrimidin-6-yl)ureido)pyridin-2-yl)-1H-pyrazol-4-yl)methyl)-3-(2-(2-((2-(2,6-dioxopiperidin-3-yl)-1-oxoisoindolin-4-yl)amino)ethoxy)ethoxy)propanamide] | – | 10 to 30 | –
